{"source": "patent US8859463B2", "about": "“Method for controlling noxious organisms” (Sumitomo Chemical Company, Limited, priority 2009, dated 2014)", "format_in_all_cases": "in vivo", "key": {"Ipomoea hederacea [1]": {"test_system": "Ipomoea hederacea", "assay": "Herbicidal effect, soybean Wagner pot test, Example 6", "settings": "clothianidin none; flumioxazin 25 g/ha; day 11 after sowing; scale 0 to 100", "text": "(§1) A soil was packed in a 1/5000a Wagner pot. The above soybean seeds were sown in the Wagner pot at a rate of two seeds per pot, and the seeds of Ipomoea hederacea were sown in the pot at a rate of three seeds per pot.\n(§2) On day 11 after sowing of the seeds of soybean and Ipomoea hederacea, the herbicidal effect and phytotoxicity were examined."}, "Aulacorthum solani": {"test_system": "Aulacorthum solani", "assay": "Insecticidal effect (protective value), soybean pot test, Example 2", "settings": "thiamethoxam none; flumioxazin 50 g/ha; day 6 after release", "procedure": "The evaluation of the insecticidal effect was performed by determining the life and death of the insects at the time of the investigation and calculating the protective value according to the following equation; Protective Value (%)=100×(1−T/C) wherein the symbols have the following meanings;\nC: The number of insects at the time of observation in an untreated section: and\nT: The number of insects at the time of observation in a treated section.\nThereafter, the test pot was placed in a greenhouse."}, "Senna obtusifolia": {"test_system": "Senna obtusifolia", "assay": "Herbicidal activity, soybean pot test, Example 58", "settings": "strobilurin seed treatment none, twelve days after sowing", "procedure": "(§3) In a plastic cup measuring 65 mm in inner diameter and 75 mm in height, 4.8 mg of a pyraclostrobin emulsifiable concentrate (emulsifiable concentrate containing 23.8% pyraclostrobin, manufactured by BASF under the trade name of Comet) and 12 soybean seeds were placed. The pyraclostrobin emulsifiable concentrate was adhered to the soybean seeds by shaking this plastic cup by hand. In the same manner, 13.2 mg of the pyraclostrobin emulsifiable concentrate was adhered to the soybean seeds. In the same manner, 4.8 mg of an azoxystrobin suspension (emulsifiable concentrate containing 22.9% azoxystrobin, manufactured by Syngenta under the trade name of Amistar) was adhered to the soybean seeds. In the same manner, 20.4 mg of an azoxystrobin suspension was adhered to the soybean seeds.\n(§4) A water diluted solution of a trifloxystrobin granular wettable powder (2.6%) was prepared by adding 52 mg of a trifloxystrobin granular wettable powder (granular wettable powder containing 50% trifloxystrobin, manufactured by Bayer Crop Science Inc. under the trade name of Flint) to 1 mL of desalted water. 51.6 mg of this water diluted solution and 12 soybean seeds were placed in the plastic cup. The water diluted solution of trifloxystrobin was adhered to the soybean seeds by shaking this plastic cup by hand. In the same manner, 199.2 mg of the water diluted solution of trifloxystrobin was adhered to the soybean seeds.\n(§5) A plastic pot measuring 194 mm in inner diameter and 176 mm in height was filled with the soil. In this pot, 2 soybean seeds were sown per 1 pot and 10 seeds of Ipomoea hederacea var. integriuscula and Senna obtusifolia were sown per 1 pot. On the day of sowing of the soybean seeds, after sowing the soybean seed, a flumioxazin granule (granule containing 0.25% flumioxazin, manufactured by Valent USA Corporation under the trade name of BroadStar) was uniformly scattered over a surface of the soil in the amount described in Tables 19 to 21 by hand.\n(§6) Twelve days after sowing the seeds of soybean, Ipomoea hederacea var. integriuscula and Senna obtusifolia, herbicidal activity was examined."}, "[2]": {"test_system": "Ipomoea hederacea var. integriuscula", "assay": "Herbicidal activity, soybean pot test, Example 58", "settings": "strobilurin seed treatment none, twelve days after sowing", "procedure": "as §3, §4, §5, §6"}, "Ipomoea hederacea [3]": {"test_system": "Ipomoea hederacea", "assay": "Herbicidal activity, corn pot test, Example 16", "settings": "azole seed treatment none, flumioxazin 50 g/ha, twelve days after sowing", "procedure": "In a glass container measuring 60 mm in inner diameter and 20 mm in height, 8 μl of a prothioconazole emulsifiable concentrate (emulsifiable concentrate containing 25% prothioconazole, manufactured by Bayer Crop Science Inc. under the trade name of Proline) and 20 corn seeds were placed. The prothioconazole emulsifiable concentrate was adhered to the corn seeds by shaking this plastic cup by hand. In the same manner, 8 μl of a difenoconazole emulsifiable concentrate (emulsifiable concentrate containing 25% difenoconazole, manufactured by Syngenta under the trade name of Score) was adhered to 20 corn seeds. In the same manner, 50 mg of a tebuconazole suspension (suspension containing 20% tebuconazole, manufactured by Hokko Chemical Industry under the trade name of ONLY ONE Flowable) was adhered to 20 corn seeds.\nA plastic pot measuring 194 mm in inner diameter and 176 mm in height was filled with the soil. In this pot, 3 corn seeds were sown per 1 pot and 10 seeds of Ipomoea hederacea were sown per 1 pot. […]"}, "Ipomoea lacunosa": {"test_system": "Ipomoea lacunosa", "assay": "Herbicidal activity, corn pot test, Example 76", "settings": "metalaxyl-M none, flumioxazin 25 g/ha, ten days after sowing", "procedure": "In a glass container measuring 60 mm in inner diameter and 20 mm in height, 15 mg of a metalaxyl-M emulsifiable concentrate (emulsifiable concentrate containing 33.3% metalaxyl-M, manufactured by Syngenta under the trade name of Apron XL) and 25 corn seeds were placed. After capping this glass container, the metalaxyl-M emulsifiable concentrate was adhered to the corn seeds by shaking the glass container by hand. In the same manner, 33 mg of the metalaxyl-M emulsifiable concentrate was adhered to the corn seeds.\nA plastic pot measuring 194 mm in inner diameter and 176 mm in height was filled with the soil. In this pot, 2 corn seeds were sown per 1 pot and 10 seeds of Ipomoea lacunosa were sown per 1 pot. On the day of sowing of the corn seeds, after sowing the corn seeds, a water diluted solution (24.5 mg of product/liter) of a flumioxazin granular wettable powder (granular wettable powder containing 51% flumioxazin, manufactured by Valent USA Corporation under the trade name of Valor SX), a water diluted solution (66.7 mg of product/liter) of a sulfentrazone granular wettable powder (granular wettable powder containing 75% sulfentrazone manufactured by FMC Corporation under the trade name of Cover), a water diluted solution (15 mg/liter) of saflufenacil and a water diluted solution (100 mg/liter) of oxyfluorfen were uniformly sprayed over a surface of the soil in each amount described in Tables 28 to 31, using a sprayer. The water diluted solutions of saflufenacil and oxyfluorfen were prepared by dissolving each predetermined amount of saflufenacil and oxyfluorfen in acetone containing 2% (w/v) Tween 20 and diluting each solution with water so as to adjust the concentration of acetone to 10% by volume.\nTen days after sowing the seeds of corn and Ipomoea lacunosa, herbicidal activity was examined."}, "soybean": {"test_system": "soybean", "assay": "Phytotoxicity to soybean, Example 6", "settings": "clothianidin none; flumioxazin 25 g/ha; day 11 after sowing", "text": "as §1, §2"}}, "data": [{"smiles": "C#CCN1C(=O)COc2cc(F)c(N3C(=O)C4=C(CCCC4)C3=O)cc21", "note": "[Flumioxazin, flumioxazin]", "values": [{"measurement": "Evaluation of Effect on Weeds", "setting": "Ipomoea hederacea [1]", "value": 25}, {"measurement": "Protective Value", "setting": "Aulacorthum solani", "value": 0, "unit": "%"}, {"measurement": "Herbicidal activity Senna obtusifolia", "setting": "Senna obtusifolia; flumioxazin 25 g/ha", "value": 20}, {"measurement": "Herbicidal activity Senna obtusifolia", "setting": "Senna obtusifolia; flumioxazin 100 g/ha", "value": 45}, {"measurement": "Herbicidal activity Ipomoea hederacea var. integriuscula", "setting": "[2]; flumioxazin 25 g/ha", "value": 25}, {"measurement": "Herbicidal activity Ipomoea hederacea var. integriuscula", "setting": "[2]; flumioxazin 100 g/ha", "value": 85}, {"measurement": "Herbicidal activity on Ipomoea hederacea", "setting": "Ipomoea hederacea [3]", "value": 88}, {"measurement": "Herbicidal activity", "setting": "Ipomoea lacunosa", "value": 40}, {"measurement": "Phytotoxicity to Soybean", "setting": "soybean", "value": "No harm"}]}]}
